{"source": "patent US20230242669A1", "about": "“ANTIBODY THAT BINDS ERBB-2 AND ERBB-3” (Merus N.V., priority 2014, published 2023)"}
{"tested_on": "HER2 overexpressing cells (SK-BR-3, BT-474, N87)", "assay": "Drug combinations with PB4188 in vitro (checkerboard, isobolograms)", "type": "cell-based, human", "settings": "HER2 amplified cells, HRG", "method": "Moreover, combination with chemotherapeutic drugs and cyclin inhibitors were tested. Combinations were tested on HER2 overexpressing cells growing in the presence of HRG in […]® (SK-BR-3 and BT-474) or in the presence of HRG stress concentrations (N87 and SK-BR-3 as described in proliferation assays). The inhibitory effect of drug combinations was tested by imaging or by measuring proliferation using Alamar Blue as described herein before. […] The extent of growth inhibition obtained with each combination was calculated. […] The inhibition values of the combination experiments were used by CHALICE™ Analyzer software to generate the isobolograms."}
{"smiles": "NC1(c2ccc(-c3nc4ccn5c(=O)[nH]nc5c4cc3-c3ccccc3)cc2)CCC1", "note": "[MK-2206]", "Drug combination with PB4188 (isobologram analysis)": "synergistic"}
{"smiles": "CS(=O)(=O)CCNCc1ccc(-c2ccc3ncnc(Nc4ccc(OCc5cccc(F)c5)c(Cl)c4)c3c2)o1", "note": "[lapatinib]", "Drug combination with PB4188 (isobologram analysis)": "synergistic"}
{"smiles": "O=C(CCCCCCC(=O)Nc1ccccc1)NO", "note": "[vorinostat]", "Drug combination with PB4188 (isobologram analysis)": "synergistic"}
{"smiles": "CCOc1cc2ncc(C#N)c(Nc3ccc(OCc4ccccn4)c(Cl)c3)c2cc1NC(=O)/C=C/CN(C)C", "note": "[neratinib]", "Drug combination with PB4188 (isobologram analysis)": "synergistic"}
{"smiles": "CO[C@H]1C[C@@H]2CC[C@@H](C)[C@@](O)(O2)C(=O)C(=O)N2CCCC[C@H]2C(=O)O[C@H]([C@H](C)C[C@@H]2CC[C@@H](OCCO)[C@H](OC)C2)CC(=O)[C@H](C)/C=C(\\C)[C@@H](O)[C@@H](OC)C(=O)[C@H](C)C[C@H](C)/C=C/C=C/C=C/1C", "note": "[everolimus]", "Drug combination with PB4188 (isobologram analysis)": "synergistic"}
{"smiles": "Cc1nc(NC(=O)N2CCC[C@H]2C(N)=O)sc1-c1ccnc(C(C)(C)C(F)(F)F)c1", "note": "[BYL719]", "Drug combination with PB4188 (isobologram analysis)": "synergistic"}
{"smiles": "CC(=O)O[C@H]1C(=O)[C@@]2(C)[C@H]([C@H](OC(=O)c3ccccc3)[C@]3(O)C[C@H](OC(=O)[C@H](O)[C@@H](NC(=O)c4ccccc4)c4ccccc4)C(C)=C1C3(C)C)[C@]1(OC(C)=O)CO[C@@H]1C[C@@H]2O", "note": "[paclitaxel]", "Drug combination with PB4188 (isobologram analysis)": "synergistic"}
